# Assay results: US5198439A, “Angiotension II antagonizing pyridine derivatives” (Imperial Chemical Industries PLC, priority 1990, dated 1993)
# Columns and labels:
# [1] = biological target: T1, AII receptors (Cavia porcellus, UniProt Q9WV26); test: Test A: displacement of radiolabelled AII binding to guinea pig adrenal gland cell surface membranes; conditions: read-out: IC50 (concentration for 50% displacement of radiolabelled AII binding)
# T1 construct: the source of cell surface membranes is the guinea pig adrenal gland; from tissue; host or cells: guinea pig adrenal gland, cell surface membrane fraction
# T1 sequence (Q9WV26 1-359): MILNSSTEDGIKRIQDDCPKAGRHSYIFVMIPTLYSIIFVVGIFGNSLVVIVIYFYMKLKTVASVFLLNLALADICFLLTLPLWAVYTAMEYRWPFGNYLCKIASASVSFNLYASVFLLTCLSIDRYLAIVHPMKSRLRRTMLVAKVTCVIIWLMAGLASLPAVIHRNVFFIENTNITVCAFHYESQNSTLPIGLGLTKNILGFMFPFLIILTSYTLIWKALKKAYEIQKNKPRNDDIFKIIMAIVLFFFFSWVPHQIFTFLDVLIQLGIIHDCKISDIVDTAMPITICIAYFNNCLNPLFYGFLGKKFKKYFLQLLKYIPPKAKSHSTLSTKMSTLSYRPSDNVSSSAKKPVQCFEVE
# Procedure: Test A: This in vitro procedure involves the incubation of the test compound initially at a concentration of 100 micromolar (or less) in a buffered mixture containing fixed concentrations of radiolabelled AII and a cell surface membrane fraction prepared from a suitable angiotensin target tissue. In this test, the source of cell surface membranes is the guinea pig adrenal gland which is well known to respond to AII. Interaction of the radiolabelled AII with its receptors (assessed as radiolabel bound to the particulate membrane fraction following removal of unbound radiolabel by a rapid filtration procedure such as is standard in such studies) is antagonized by compounds which also bind to the membrane receptor sites and the degree of antagonism (observed in the test as displacement of membrane-bound radioactivity) is determined readily by comparing the receptor-bound radioactivity in the presence of the test compound at the specified test concentration with a control value determined in the absence of the test compound. Using this procedure compounds showing at least 50% displacement of radiolabelled AII binding at a concentration of 10^-4 M are retested at lower concentrations to determine their potency. […]
# [2] = test system: angiotensin II-induced pressor responses; test: Test C: antagonism of angiotensin II-induced pressor responses in rats; type: in vivo; conditions: iv, rat, i.v. administration
# Procedure: Test C: This in vivo test involves using terminally-anaesthetised or conscious rats in which an arterial catheter has been implanted under anaesthesia for the measurement of changes in blood pressure. The AII antagonistic effects of the test compound following oral or parenteral administration, are assessed against angiotensin II-induced pressor responses. To ensure that the effect is specific, the effect of the test compound on vasopressin-induced pressor responses may also be determined in the same preparation.
structure (smiles),measurement,setting,value
"COC(=O)c1c(OCc2ccc(-c3ccccc3-c3nnn[nH]3)cc2)cc(C)nc1C.Cl [Example 2, methyl 2,6-dimethyl-4-[(2'-(1H-tetrazol-5-yl)biphenyl-4-yl)methoxy]pyridine-3-carboxylate hydrochloride]",IC50,[1],50 nM
same,ED50,[2],0.1 mg/kg
